Active and inactive are the calls of the source. No cut-off for these calls is given here.
Legend:
Mus musculus [1] = experiment: Antialzheimer activity in human oligo-merized amyloid beta (1 to 42 residues)-induced cognitive impairment C57BL/6 mouse model assessed as increase duration in novel arm at 15 mg/kg,ip qd for 10 days by Y-maze test relative to control; type: functional, organism-based; conditions: time 10.0 day
[2] = Acute toxicity in ICR mouse assessed as abnormal behavior at 1200 mg/kg, po and measured after 4 hrs; type: organism-based; conditions: in vivo
Mus musculus [3] = experiment: Antialzheimer activity in scopolamine-induced cognitive impairment ICR mouse model assessed as time latency to reach target at 15 mg/kg,ip qd for 10 days followed by scopolmaine-stimulation measured on day 16 by Morris water maze test (Rvb= 71.89 +/- 25.59 sec); type: functional; conditions: time 10 day
SH-SY5Y [4] = experiment: (§1) Neuroprotective activity in human SH-SY5Y cells assessed as inhibition of okadaic acid-induced mitochondrial membrane potential by measuring increase in red-to-green fluorescence intensity ratio pretreated for 24 hrs followed by okadaic acid addition for 24 hrs by JC-1 dye based fluorescence analysis; type: functional, cell-based
[5] = Metal chelating activity assessed as Fe2+-compound complex formation by measuring red shift in presence of FeSO4 at 40 uM incubated for 30 mins by UV-Visible spectrophotometry
[6] = Acute toxicity in ICR mouse assessed as altered water consumption at 1200 mg/kg, po and measured after 14 days; type: organism-based; conditions: in vivo, 336 h, time 14 day
[7] = Metal chelating activity assessed as Al3+-compound complex formation by measuring red shift in presence of AlCl3 at 40 uM incubated for 30 mins by UV-Visible spectrophotometry
[8] = Acute toxicity in ICR mouse assessed as altered water consumption at 1200 mg/kg, po and measured after 4 hrs; type: organism-based; conditions: in vivo
SH-SY5Y [9] = experiment: Antioxidant activity against okadaic acid-induced ROS generation in human SH-SY5Y cells assessed as reduction in DCF fluorescence intensity at 1 to 10 uM pretreated for 24 hrs followed by okadaic acid addition for 24 hrs by DCFH-DA dye based fluorescence analysis; type: functional, cell-based; conditions: dose 1-10 µM
[10] = Acute toxicity in ICR mouse assessed as change in body weight at 1200 mg/kg, po and measured after 4 hrs; type: organism-based; conditions: in vivo
[11] = Metal chelating activity assessed as Zn2+-compound complex formation by measuring red shift in presence of ZnCl2 at 40 uM incubated for 30 mins by UV-Visible spectrophotometry
[12] = target: T1, Amyloid-beta precursor protein (Homo sapiens, UniProt P05067); experiment: Inhibition of Cu2+ induced amyloid beta (1 to 42 ) (unknown origin) aggregation assessed as reduction in fibrils incubated for 24 hr by TEM analysis
SH-SY5Y [13] = experiment: Antialzheimer activity in human SH-SY5Y cells assessed as inhibition of GA-induced tau hyperphosphorylation at Ser199 residue at 0.1 to 3 uM incubated for 24 hrs by ELISA; type: functional, cell-based; conditions: dose 0.1-3 µM
[14] = target: T1, Amyloid-beta precursor protein; experiment: Inhibition of Cu2+ induced amyloid beta (1 to 42 ) (unknown origin) aggregation incubated for 24 hr by Thioflavin T based fluorometric assay
SH-SY5Y [15] = experiment: Cytotoxicity against human SH-SY5Y cells assessed as reduction in cell viability upto 50 uM incubated for 24 hrs by MTT assay; type: toxicity, cell-based
[16] = Acute toxicity in ICR mouse assessed as change in body weight at 1200 mg/kg, po and measured after 24 hrs; type: organism-based; conditions: in vivo
SH-SY5Y [17] = experiment: Antialzheimer activity in human SH-SY5Y cells assessed as inhibition of GA-induced tau hyperphosphorylation at Ser396 residue at 0.1 to 3 uM incubated for 24 hrs by ELISA; type: functional, cell-based; conditions: dose 0.1-3 µM
[18] = Acute toxicity in ICR mouse assessed as abnormal behavior at 1200 mg/kg, po and measured after 24 hrs; type: organism-based; conditions: in vivo
SH-SY5Y [19] = experiment: Antialzheimer activity in human SH-SY5Y cells assessed as inhibition of GA-induced tau hyperphosphorylation at Ser199 residue incubated for 24 hrs by ELISA; type: functional, cell-based
[20] = Acute toxicity in ICR mouse assessed as altered food consumption at 1200 mg/kg, po and measured after 14 days; type: organism-based; conditions: in vivo, 336 h, time 14 day
Mus musculus [21] = experiment: Antialzheimer activity in human oligo-merized amyloid beta (1 to 42 residues)-induced cognitive impairment C57BL/6 mouse model assessed as increase in percentage of time spent in the target quadrant at 15 mg/kg,ip qd for 10 days by Morris water maze test relative to control; type: functional, organism-based; conditions: time 10.0 day
[22] = target: T1, Amyloid-beta precursor protein; experiment: Inhibition of AChE induced HFIP-pretreated amyloid beta (1 to 42 ) (unknown origin) aggregation incubated for 24 hr by Thioflavin T based fluorometric assay
[23] = target: T1, Amyloid-beta precursor protein; experiment: Inhibition of amyloid beta (1 to 42 ) (unknown origin) self aggregation incubated for 24 hr by Thioflavin T based fluorometric assay
[24] = Acute toxicity in ICR mouse assessed as change in body weight at 1200 mg/kg, po and measured after 14 days; type: organism-based; conditions: in vivo, 336 h, time 14 day
Mus musculus [25] = experiment: Antialzheimer activity in scopolamine-induced cognitive impairment ICR mouse model assessed as distance to reach target at 15 mg/kg,ip qd for 10 days followed by scopolmaine-stimulation measured on day 16 by Morris water maze test (Rvb= 16.93 +/- 5.88 meter); type: functional; conditions: time 10 day
[26] = Acute toxicity in ICR mouse assessed as mortality at 1200 mg/kg, po and measured after 14 days; type: organism-based; conditions: in vivo, 336 h, time 14 day
[27] = Acute toxicity in ICR mouse assessed as altered food consumption at 1200 mg/kg, po and measured after 24 hrs; type: organism-based; conditions: in vivo
[28] = target: T1, Amyloid-beta precursor protein; experiment: Inhibition of AChE induced HFIP-pretreated amyloid beta (1 to 42 ) (unknown origin) aggregation at 0.1 to 10 uM incubated for 24 hr by Thioflavin T based fluorometric assay; conditions: dose 0.1-10 µM
[29] = Acute toxicity in ICR mouse assessed as mortality at 1200 mg/kg, po and measured after 24 hrs; type: organism-based; conditions: in vivo
Mus musculus [30] = experiment: Antialzheimer activity in human oligo-merized amyloid beta (1 to 42 residues)-induced cognitive impairment C57BL/6 mouse model assessed as decrease TNF-alpha level in cortex at 15 mg/kg,ip qd for 10 days by ELISA; type: functional, organism-based; conditions: time 10.0 day
[31] = Acute toxicity in ICR mouse assessed as abnormal behavior at 1200 mg/kg, po and measured after 14 days; type: organism-based; conditions: in vivo, 336 h, time 14 day
Acetylcholinesterase [32] = target: Acetylcholinesterase (Electrophorus electricus, UniProt O42275); experiment: Inhibition of electric eel AChE using acetylthiocholine iodide as substrate preincubated for 15 mins followed by substrate addition by Ellman's method
[33] = Metal chelating activity assessed as Fe3+-compound complex formation by measuring red shift in presence of FeCl3 at 40 uM incubated for 30 mins by UV-Visible spectrophotometry
SH-SY5Y [34] = experiment: as §1, with “ratio at 1 to 10 uM” for “ratio”; type: functional, cell-based; conditions: dose 1-10 µM
[35] = Acute toxicity in ICR mouse assessed as altered water consumption at 1200 mg/kg, po and measured after 24 hrs; type: organism-based; conditions: in vivo
SH-SY5Y [36] = experiment: Antialzheimer activity in human SH-SY5Y cells assessed as inhibition of GA-induced tau hyperphosphorylation at Ser396 residue incubated for 24 hrs by ELISA; type: functional, cell-based
Mus musculus [37] = experiment: Antialzheimer activity in human oligo-merized amyloid beta (1 to 42 residues)-induced cognitive impairment C57BL/6 mouse model assessed as decrease in escape latency at 15 mg/kg,ip qd for 10 days by Morris water maze test relative to control; type: functional, organism-based; conditions: time 10.0 day
SH-SY5Y [38] = experiment: Antioxidant activity against okadaic acid-induced ROS generation in human SH-SY5Y cells assessed as reduction in DCF fluorescence intensity pretreated for 24 hrs followed by okadaic acid addition for 24 hrs by DCFH-DA dye based fluorescence analysis; type: functional, cell-based
[39] = Metal chelating activity assessed as Cu2+-compound complex formation by measuring red shift in presence of CuSO4 at 40 uM incubated for 30 mins by UV-Visible spectrophotometry
[40] = Acute toxicity in ICR mouse assessed as altered food consumption at 1200 mg/kg, po and measured after 4 hrs; type: organism-based; conditions: in vivo
[41] = Acute toxicity in ICR mouse assessed as mortality at 1200 mg/kg, po and measured after 4 hrs; type: organism-based; conditions: in vivo
Acetylcholinesterase [42] = target: Acetylcholinesterase (Homo sapiens, UniProt P22303); experiment: Inhibition of AChE in human SH-SY5Ycells assessed as reduction AChE activity using acetylthiocholine as substrate incubated for 24 hrs by DTNB based Ellman's method; type: cell-based, SH-SY5Y
Mus musculus [43] = experiment: Antialzheimer activity in human oligo-merized amyloid beta (1 to 42 residues)-induced cognitive impairment C57BL/6 mouse model assessed as increase in ratio of brain to body weight at 15 mg/kg,ip qd for 10 days by Morris water maze test; type: functional, organism-based; conditions: time 10.0 day
Mus musculus [44] = experiment: Antialzheimer activity in human oligo-merized amyloid beta (1 to 42 residues)-induced cognitive impairment C57BL/6 mouse model assessed as decrease IL-1beta level in cortex at 15 mg/kg,ip qd for 10 days by ELISA; type: functional, organism-based; conditions: time 10.0 day

T1 sequence (P05067 whole entry): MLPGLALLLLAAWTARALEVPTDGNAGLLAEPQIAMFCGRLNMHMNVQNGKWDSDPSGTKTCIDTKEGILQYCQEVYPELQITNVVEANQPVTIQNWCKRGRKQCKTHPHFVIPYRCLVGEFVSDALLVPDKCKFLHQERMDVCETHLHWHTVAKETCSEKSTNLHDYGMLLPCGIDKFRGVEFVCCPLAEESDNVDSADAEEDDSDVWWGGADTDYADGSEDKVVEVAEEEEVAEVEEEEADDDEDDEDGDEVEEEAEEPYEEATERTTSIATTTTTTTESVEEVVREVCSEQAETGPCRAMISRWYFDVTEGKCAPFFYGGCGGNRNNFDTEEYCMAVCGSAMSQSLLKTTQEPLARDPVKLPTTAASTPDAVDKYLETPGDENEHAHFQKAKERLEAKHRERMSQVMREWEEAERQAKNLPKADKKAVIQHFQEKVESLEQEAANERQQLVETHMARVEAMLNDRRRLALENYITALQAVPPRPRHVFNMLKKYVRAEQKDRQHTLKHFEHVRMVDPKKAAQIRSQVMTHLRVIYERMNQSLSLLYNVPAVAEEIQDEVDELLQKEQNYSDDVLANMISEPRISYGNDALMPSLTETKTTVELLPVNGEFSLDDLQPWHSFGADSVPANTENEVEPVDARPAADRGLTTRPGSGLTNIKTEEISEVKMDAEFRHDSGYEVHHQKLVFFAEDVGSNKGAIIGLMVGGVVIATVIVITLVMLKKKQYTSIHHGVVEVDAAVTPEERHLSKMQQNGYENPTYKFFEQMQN
Sequence of Acetylcholinesterase (Electrophorus electricus, UniProt O42275) (O42275 whole entry): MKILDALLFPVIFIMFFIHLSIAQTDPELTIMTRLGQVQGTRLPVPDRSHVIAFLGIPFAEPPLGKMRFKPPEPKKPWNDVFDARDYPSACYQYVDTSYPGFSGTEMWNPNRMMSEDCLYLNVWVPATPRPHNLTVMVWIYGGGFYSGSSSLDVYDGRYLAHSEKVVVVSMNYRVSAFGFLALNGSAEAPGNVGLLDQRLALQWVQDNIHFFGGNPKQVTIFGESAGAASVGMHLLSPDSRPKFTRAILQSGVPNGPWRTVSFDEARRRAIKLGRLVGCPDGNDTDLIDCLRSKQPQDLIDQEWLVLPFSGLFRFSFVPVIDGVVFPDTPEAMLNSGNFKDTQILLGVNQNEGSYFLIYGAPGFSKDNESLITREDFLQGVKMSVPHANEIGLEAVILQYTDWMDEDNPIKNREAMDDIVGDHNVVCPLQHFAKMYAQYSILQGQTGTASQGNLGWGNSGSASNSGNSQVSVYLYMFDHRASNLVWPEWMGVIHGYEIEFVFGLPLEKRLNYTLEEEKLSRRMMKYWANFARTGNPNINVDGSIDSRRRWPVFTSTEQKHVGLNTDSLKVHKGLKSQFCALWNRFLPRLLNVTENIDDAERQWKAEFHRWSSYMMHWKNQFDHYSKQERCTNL
Sequence of Acetylcholinesterase (Homo sapiens, UniProt P22303) (P22303 whole entry, the tested form may be a part): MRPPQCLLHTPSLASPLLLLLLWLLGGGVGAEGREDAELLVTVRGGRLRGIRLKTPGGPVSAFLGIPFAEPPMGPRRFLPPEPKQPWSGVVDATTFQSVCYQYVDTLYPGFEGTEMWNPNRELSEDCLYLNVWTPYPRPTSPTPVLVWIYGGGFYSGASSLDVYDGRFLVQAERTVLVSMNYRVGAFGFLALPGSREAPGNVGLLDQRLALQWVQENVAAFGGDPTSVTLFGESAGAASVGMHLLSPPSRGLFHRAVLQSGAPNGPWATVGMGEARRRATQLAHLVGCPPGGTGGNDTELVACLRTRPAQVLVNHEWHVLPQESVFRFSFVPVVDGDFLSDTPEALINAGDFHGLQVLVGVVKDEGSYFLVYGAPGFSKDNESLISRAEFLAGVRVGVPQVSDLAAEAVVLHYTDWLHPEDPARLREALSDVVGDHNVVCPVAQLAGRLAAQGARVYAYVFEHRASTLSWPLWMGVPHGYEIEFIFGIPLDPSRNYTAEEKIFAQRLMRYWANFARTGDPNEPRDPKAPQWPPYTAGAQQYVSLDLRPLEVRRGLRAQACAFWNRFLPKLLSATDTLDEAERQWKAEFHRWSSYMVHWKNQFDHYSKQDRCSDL

Cl.Oc1cccc2ccc(/C=C/C3=CCN(Cc4ccccc4C(F)(F)F)CC3)nc12
Activity (Mus musculus [1]): Active | Activity [2]: Non-Toxic | Time (Mus musculus [3]): 35.22 s | IC50 (SH-SY5Y [4]): 434 µM | Activity [5]: Active | Activity [6]: Non-Toxic | Activity [7]: Active | Activity [8]: Non-Toxic | Activity (SH-SY5Y [9]): Active | Activity [10]: Non-Toxic | Activity [11]: Active | inhibition [12]: Active | Activity (SH-SY5Y [13]): Active | inhibition [14]: Active | Activity (SH-SY5Y [15]): Non-Toxic | Activity [16]: Non-Toxic | Activity (SH-SY5Y [17]): Active | Activity [18]: Non-Toxic | IC50 (SH-SY5Y [19]): 82 µM | Activity [20]: Non-Toxic | Activity (Mus musculus [21]): Active | IC50 [22]: 1660 µM | inhibition [23]: inactive | Activity [24]: Non-Toxic | Activity (Mus musculus [25]): 8.05 m | Activity [26]: Non-Toxic | Activity [27]: Non-Toxic | inhibition [28]: Dose-Dependent Effect | Activity [29]: Non-Toxic | Activity (Mus musculus [30]): Active | Activity [31]: Non-Toxic | IC50 (Acetylcholinesterase [32]): 0.11 µM | Activity [33]: Active | Activity (SH-SY5Y [34]): Active | Activity [35]: Non-Toxic | IC50 (SH-SY5Y [36]): 138 µM | Activity (Mus musculus [37]): Active | IC50 (SH-SY5Y [38]): 213 µM | Activity [39]: Active | Activity [40]: Non-Toxic | Activity [41]: Non-Toxic | IC50 (Acetylcholinesterase [42]): 161 µM | Activity (Mus musculus [43]): Active | Activity (Mus musculus [44]): Active
